According to ChEMBL document CHEMBL1201862, “PubChem BioAssay data set” (2004):
Counter-ions that a name gives are not always drawn. Blank lines part the entries; values can stand above or below the compound they belong to. Activity calls are given as the source filed them.

Legend:
[1] = target: T1, Sentrin-specific protease 8 (Homo sapiens, UniProt Q96LD8); type: functional;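 further: luminescence read-out of SENP8 inhibition, dose-response confirmation following an ultra-high-throughput screen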
T1 sequence (Q96LD8 whole entry): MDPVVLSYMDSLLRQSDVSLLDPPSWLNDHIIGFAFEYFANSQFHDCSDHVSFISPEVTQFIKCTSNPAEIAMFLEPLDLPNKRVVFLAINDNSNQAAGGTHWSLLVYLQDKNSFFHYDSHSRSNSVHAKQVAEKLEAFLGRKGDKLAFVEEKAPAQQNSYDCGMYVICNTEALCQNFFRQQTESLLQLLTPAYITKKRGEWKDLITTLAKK

HeLa = experiment: ATP-based viability loss in HeLa cells – cell-based, CellTiter-Glo luminescence, cherry-pick samples, cytotoxicity control for MITF activator project, dose response (AID 540259); type: functional; conditions: Homo sapiens
[2] = target: T2, Sentrin-specific protease 7 (Homo sapiens, UniProt Q9BQF6); type: functional;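 further: Luminescence-based dose-response confirmation of ultra-high-throughput screening hits, measuring inhibition of SENP7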
T2 sequence (Q9BQF6 whole entry): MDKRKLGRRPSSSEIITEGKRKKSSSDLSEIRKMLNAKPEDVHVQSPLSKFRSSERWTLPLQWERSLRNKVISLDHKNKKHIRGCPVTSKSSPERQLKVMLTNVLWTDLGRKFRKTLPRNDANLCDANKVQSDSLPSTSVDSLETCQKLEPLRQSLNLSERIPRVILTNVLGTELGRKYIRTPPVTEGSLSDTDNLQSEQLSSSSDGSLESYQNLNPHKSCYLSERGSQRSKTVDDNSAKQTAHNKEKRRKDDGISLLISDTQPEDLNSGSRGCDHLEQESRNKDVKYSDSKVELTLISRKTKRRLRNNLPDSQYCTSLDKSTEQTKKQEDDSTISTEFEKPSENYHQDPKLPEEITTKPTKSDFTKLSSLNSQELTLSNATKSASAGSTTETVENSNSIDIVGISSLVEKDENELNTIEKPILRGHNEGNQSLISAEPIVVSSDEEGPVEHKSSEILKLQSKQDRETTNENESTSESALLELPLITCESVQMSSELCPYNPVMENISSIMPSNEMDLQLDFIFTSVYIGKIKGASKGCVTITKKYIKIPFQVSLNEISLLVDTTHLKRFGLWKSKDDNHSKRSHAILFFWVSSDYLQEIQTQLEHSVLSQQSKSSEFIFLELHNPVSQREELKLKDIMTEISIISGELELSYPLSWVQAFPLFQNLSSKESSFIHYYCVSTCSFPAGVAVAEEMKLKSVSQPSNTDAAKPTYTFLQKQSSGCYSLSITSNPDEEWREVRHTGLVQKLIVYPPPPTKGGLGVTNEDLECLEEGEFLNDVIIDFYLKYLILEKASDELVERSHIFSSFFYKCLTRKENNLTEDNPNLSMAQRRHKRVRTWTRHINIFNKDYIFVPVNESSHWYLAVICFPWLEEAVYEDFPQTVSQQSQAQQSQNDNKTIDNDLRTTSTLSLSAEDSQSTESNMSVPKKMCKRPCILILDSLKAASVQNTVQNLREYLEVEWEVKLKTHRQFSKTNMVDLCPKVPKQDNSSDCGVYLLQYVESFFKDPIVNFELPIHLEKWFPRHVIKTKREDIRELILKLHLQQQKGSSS

[3] = target: T3, Sentrin-specific protease 6 (Homo sapiens, UniProt Q9GZR1); type: functional
T3 sequence (Q9GZR1 whole entry): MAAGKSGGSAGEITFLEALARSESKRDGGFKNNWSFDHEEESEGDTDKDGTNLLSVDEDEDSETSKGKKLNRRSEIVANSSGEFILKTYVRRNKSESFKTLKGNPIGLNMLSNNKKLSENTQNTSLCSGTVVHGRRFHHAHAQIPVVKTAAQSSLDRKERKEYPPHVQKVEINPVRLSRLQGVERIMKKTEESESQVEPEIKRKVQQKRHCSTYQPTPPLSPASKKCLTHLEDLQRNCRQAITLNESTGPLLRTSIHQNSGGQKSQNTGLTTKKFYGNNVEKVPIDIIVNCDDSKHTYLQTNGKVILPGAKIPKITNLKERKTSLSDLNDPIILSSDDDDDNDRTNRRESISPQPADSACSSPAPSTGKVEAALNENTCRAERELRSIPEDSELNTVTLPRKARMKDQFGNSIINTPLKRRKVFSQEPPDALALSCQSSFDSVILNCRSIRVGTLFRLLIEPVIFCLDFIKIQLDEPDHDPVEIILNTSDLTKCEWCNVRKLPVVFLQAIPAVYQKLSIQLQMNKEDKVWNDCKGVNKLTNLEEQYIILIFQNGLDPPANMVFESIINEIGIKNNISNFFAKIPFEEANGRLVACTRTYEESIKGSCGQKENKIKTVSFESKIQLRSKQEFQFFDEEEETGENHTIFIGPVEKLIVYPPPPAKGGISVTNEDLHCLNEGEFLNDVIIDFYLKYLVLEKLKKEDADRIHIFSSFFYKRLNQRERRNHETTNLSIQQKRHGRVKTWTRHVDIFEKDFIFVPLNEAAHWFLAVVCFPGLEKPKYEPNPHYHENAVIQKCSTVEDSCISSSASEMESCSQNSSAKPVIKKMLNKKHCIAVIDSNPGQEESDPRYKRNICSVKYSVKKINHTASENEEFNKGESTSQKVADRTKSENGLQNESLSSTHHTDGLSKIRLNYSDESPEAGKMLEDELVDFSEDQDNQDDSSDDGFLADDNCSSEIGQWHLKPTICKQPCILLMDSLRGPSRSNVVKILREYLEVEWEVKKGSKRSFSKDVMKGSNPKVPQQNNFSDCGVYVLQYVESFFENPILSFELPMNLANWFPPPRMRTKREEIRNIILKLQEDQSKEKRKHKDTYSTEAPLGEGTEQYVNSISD

Caspase-3 [4] = target: T4, Caspase-3 (Homo sapiens, UniProt P42574); type: functional
T4 sequence (P42574 whole entry): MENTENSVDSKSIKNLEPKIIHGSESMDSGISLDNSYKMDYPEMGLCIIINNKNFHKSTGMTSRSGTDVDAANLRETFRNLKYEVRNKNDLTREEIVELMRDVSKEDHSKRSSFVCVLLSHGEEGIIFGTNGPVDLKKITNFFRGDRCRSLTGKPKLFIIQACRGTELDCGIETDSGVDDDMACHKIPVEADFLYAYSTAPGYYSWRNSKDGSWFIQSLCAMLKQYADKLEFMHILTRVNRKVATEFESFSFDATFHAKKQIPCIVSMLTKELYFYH

Mu-type opioid receptor = Mu-type opioid receptor (Homo sapiens, UniProt P35372); experiment: (§1) Counterscreen for agonists of heterodimerization of the mu 1 (OPRM1) and delta 1 (OPRD1) opioid receptors: Luminescence-based cell-based high throughput dose response assay to identify agonists of OPRM1 homodimerization.; type: functional
[5] = target: Delta-type opioid receptor (Homo sapiens, UniProt P41143); experiment: as §1, with “of OPRD1” for “of OPRM1”, “homodimerization. [Related pubchem assays (depositor defined):AID504326, AID504355, AID504692, AID504904, AID504905]” for “homodimerization.”; type: functional
[6] = viability loss in CEM21 cells – cell-based, CellTiter-Glo luminescence, cherry-picked, cytotoxicity control for viral fusion inhibitor project, dose response (AID 652042); type: functional;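 further: potency for signal decrease meaning cytotoxicity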
[7] = blockers of HIV-1 envelope-mediated cell-cell fusion – cherry-pick, dose response (AID 652057); type: functional, cell-based
[8] = blockers of HIV-1 ZM109 envelope-driven cell-cell fusion – HeLa effector, CEM target cells, luciferase, cherry-pick, dose response (AID 652058); type: functional, cell-based;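 further: luciferase signal from HIV-1 Env mediated cell-cell fusion of effector and target cells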
[9] = target: 5-hydroxytryptamine receptor 5A (Homo sapiens, UniProt P47898); experiment: Counterscreen for agonists of OPRM1-OPRD1 heterodimerization: luminescence-based cell-based high throughput dose response assay to identify agonists of 5-hydroxytryptamine (serotonin) 5A receptor (HTR5A). [Related pubchem assays (depositor defined):AID504326, AID504355, AID504692, AID504904, AID504905]; type: functional
[10] = target: T5, Endoribonuclease toxin MazF (Escherichia coli K-12, UniProt P0AE70); experiment: activation of MazEF endoribonuclease cleavage – biochemical, fluorescence, single-stranded RNA substrate, uHTS hits, dose response (AID 588481); type: functional
[11] = target: T5, Endoribonuclease toxin MazF; experiment: substrate-only fluorescence increase artefacts – biochemical, single-stranded RNase substrate, counter-screen for MazEF activator project, dose response (AID 588502); type: functional
Insulin-degrading enzyme [12] = target: T6, Insulin-degrading enzyme (Homo sapiens, UniProt P14735); experiment: cellular IDE activation of Abeta substrate cleavage – fluorescence polarization, HEK cells, dose response (AID 588439); type: functional, cell-based
Insulin-degrading enzyme [13] = target: T6, Insulin-degrading enzyme; experiment: recombinant IDE activation, cell-free – biochemical, fluorescence polarization, counter-screen for IDE activator project, dose response (AID 588681)
Cytochrome P450 2C19 = Cytochrome P450 2C19 (Homo sapiens, UniProt P33261); experiment: Cytochrome panel assay with activity outcomes. Panel member name: p450-cyp2c19 Compounds with AC50 equal or less than 10 uM are considered active; type: functional
HEK293 [14] = experiment: membrane integrity loss in HEK cells – cell-based, fluorescence, cytotoxicity control for IDE activator project, dose response (AID 588440); type: functional; conditions: Homo sapiens;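 further: cytotoxicity by LDH release measuring loss of membrane integrity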
HEK293 [15] = experiment: optical interference in Abeta FP readout, dose response, artefact control for IDE activator project, biochemical, fluorescence polarization (AID 588442); type: functional, cell-based; conditions: Homo sapiens
[16] = target: Dual specificity tyrosine-phosphorylation-regulated kinase 1A (Rattus norvegicus, UniProt Q63470); type: biochemical, Homo sapiens
[17] = target: Dual specificity protein kinase CLK1 (Homo sapiens, UniProt P49759); experiment: inhibition of human CLK1 activity – biochemical, cherry-picked samples, selectivity assay for Dyrk1A inhibitor project, dose response (AID 588811)
Beta-galactosidase = Beta-galactosidase (Escherichia coli, UniProt Q8VNN2); experiment: PubChem AID 485352; type: functional
[18] = target: Type-1 angiotensin II receptor (Homo sapiens, UniProt P30556); experiment: antagonism of angiotensin II type 1 receptor – cell-based, uHTS hits, selectivity assay for APJ receptor antagonist project, dose response (AID 463214); type: functional;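 further: antagonist potency against angiotensin II stimulated AT1 response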
[19] = target: Voltage-gated inwardly rectifying potassium channel KCNH2 (Homo sapiens, UniProt Q12809); conditions: Potency;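 further: confirmatory quantitative high-throughput screen measuring inhibition of hERG channel activity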
Phospholipase D1 = Phospholipase D1 (Homo sapiens, UniProt Q13393); experiment: cellular phospholipase D1 inhibition IC50 – cell-based, dose response (AID 602151); type: functional;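 further: cellular PLD1 assay in Calu-1 cells stimulated with PMA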
Phospholipase D2 = Phospholipase D2 (Homo sapiens, UniProt O14939); experiment: cellular phospholipase D2 inhibition IC50 – cell-based, dose response (AID 602147); type: functional;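 further: cellular assay in HEK293 cells overexpressing GFP-tagged PLD2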
Caspase-3 [20] = target: T4, Caspase-3; experiment: SAR Analysis of small molecule inhibitors of Sentrin-specific proteases (SENPs) using a Caspase-3 Selectivity assay. [Related pubchem assays (depositor defined):AID2540, AID2599, AID434973, AID489001]; type: functional
[21] = target: T1, Sentrin-specific protease 8; experiment: inhibition of human SENP8 cleavage activity – biochemical, luminescence, SAR follow-up (AID 504501); type: functional
[22] = target: T2, Sentrin-specific protease 7; experiment: inhibition of human SENP7 cleavage activity – biochemical, luminescence, SAR follow-up (AID 504497); type: functional
[23] = target: T3, Sentrin-specific protease 6; experiment: SAR Analysis of small molecule inhibitors of Sentrin-specific protease 6 (SENP6) using a Luminescent assay. [Related pubchem assays (depositor defined):AID2582, AID2599]; type: functional
Candida albicans [24] = experiment: Candida growth inhibition combined with fluconazole – CaCi-2 strain, Alamar Blue, dry powder, set 3, dose response (AID 488907); type: functional, organism-based
Candida albicans [25] = experiment: resistant Candida growth with fluconazole co-treatment – CaCi-8 strain, Alamar Blue, dry powder, set 3, dose response (AID 488905); type: functional, organism-based

T6 sequence (P14735 whole entry): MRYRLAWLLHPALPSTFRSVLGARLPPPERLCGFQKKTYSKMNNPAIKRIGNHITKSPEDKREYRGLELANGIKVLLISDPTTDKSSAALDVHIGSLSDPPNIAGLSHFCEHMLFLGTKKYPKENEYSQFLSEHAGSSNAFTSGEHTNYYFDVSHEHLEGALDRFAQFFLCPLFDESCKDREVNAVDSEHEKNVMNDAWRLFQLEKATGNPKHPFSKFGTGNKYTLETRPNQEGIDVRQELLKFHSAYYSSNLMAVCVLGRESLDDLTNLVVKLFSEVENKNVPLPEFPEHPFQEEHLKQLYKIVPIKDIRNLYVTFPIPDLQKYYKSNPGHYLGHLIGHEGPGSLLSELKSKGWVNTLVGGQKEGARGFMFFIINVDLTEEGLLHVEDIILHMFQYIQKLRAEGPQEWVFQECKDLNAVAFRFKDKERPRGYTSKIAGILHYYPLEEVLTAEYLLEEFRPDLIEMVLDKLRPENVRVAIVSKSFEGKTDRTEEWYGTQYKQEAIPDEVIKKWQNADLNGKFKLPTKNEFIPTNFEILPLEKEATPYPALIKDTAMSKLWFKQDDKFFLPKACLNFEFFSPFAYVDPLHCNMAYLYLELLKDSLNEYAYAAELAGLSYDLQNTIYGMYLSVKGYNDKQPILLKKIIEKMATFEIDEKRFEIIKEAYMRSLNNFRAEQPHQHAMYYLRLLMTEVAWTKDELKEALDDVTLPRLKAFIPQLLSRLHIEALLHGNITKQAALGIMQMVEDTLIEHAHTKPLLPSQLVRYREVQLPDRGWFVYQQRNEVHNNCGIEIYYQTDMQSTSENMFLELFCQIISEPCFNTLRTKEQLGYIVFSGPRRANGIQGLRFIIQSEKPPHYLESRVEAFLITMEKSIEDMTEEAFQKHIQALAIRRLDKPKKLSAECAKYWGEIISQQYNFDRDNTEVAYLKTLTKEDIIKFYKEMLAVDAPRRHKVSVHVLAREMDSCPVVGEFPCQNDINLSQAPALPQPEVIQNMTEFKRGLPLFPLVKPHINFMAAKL
T5 sequence (P0AE70 whole entry): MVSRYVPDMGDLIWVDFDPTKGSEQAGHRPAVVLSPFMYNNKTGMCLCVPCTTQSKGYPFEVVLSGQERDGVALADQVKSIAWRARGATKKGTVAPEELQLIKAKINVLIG
Chain of Voltage-gated inwardly rectifying potassium channel KCNH2 (Q12809 whole entry): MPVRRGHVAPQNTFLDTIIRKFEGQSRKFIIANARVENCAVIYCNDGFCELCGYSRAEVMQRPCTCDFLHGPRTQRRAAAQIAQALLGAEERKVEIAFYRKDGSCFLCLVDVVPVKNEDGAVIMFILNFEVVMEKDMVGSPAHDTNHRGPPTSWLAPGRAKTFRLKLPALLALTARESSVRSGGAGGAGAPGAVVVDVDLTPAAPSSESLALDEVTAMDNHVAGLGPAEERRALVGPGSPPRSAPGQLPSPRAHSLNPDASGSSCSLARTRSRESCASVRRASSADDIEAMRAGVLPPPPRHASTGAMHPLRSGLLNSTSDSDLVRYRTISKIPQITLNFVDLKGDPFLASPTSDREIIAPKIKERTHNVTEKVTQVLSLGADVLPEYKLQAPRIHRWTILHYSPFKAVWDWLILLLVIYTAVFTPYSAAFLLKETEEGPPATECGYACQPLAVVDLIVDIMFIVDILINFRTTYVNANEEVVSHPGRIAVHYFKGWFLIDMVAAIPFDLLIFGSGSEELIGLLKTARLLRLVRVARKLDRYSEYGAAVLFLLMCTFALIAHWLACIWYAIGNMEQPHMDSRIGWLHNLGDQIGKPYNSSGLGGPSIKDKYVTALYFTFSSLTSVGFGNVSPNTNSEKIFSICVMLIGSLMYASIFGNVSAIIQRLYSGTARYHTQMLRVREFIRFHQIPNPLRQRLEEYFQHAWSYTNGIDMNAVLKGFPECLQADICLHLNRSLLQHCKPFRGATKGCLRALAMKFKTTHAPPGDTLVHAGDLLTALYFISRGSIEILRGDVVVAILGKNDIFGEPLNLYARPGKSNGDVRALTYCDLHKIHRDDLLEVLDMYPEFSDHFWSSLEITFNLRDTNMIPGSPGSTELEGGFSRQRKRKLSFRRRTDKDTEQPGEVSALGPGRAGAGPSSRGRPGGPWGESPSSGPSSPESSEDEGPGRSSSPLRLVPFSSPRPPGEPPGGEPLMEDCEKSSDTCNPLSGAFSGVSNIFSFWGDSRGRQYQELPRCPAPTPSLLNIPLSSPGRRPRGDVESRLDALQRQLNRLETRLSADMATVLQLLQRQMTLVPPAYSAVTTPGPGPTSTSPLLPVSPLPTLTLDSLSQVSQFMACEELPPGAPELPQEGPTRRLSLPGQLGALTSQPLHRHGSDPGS
Chain of Phospholipase D1 (Q13393 whole entry): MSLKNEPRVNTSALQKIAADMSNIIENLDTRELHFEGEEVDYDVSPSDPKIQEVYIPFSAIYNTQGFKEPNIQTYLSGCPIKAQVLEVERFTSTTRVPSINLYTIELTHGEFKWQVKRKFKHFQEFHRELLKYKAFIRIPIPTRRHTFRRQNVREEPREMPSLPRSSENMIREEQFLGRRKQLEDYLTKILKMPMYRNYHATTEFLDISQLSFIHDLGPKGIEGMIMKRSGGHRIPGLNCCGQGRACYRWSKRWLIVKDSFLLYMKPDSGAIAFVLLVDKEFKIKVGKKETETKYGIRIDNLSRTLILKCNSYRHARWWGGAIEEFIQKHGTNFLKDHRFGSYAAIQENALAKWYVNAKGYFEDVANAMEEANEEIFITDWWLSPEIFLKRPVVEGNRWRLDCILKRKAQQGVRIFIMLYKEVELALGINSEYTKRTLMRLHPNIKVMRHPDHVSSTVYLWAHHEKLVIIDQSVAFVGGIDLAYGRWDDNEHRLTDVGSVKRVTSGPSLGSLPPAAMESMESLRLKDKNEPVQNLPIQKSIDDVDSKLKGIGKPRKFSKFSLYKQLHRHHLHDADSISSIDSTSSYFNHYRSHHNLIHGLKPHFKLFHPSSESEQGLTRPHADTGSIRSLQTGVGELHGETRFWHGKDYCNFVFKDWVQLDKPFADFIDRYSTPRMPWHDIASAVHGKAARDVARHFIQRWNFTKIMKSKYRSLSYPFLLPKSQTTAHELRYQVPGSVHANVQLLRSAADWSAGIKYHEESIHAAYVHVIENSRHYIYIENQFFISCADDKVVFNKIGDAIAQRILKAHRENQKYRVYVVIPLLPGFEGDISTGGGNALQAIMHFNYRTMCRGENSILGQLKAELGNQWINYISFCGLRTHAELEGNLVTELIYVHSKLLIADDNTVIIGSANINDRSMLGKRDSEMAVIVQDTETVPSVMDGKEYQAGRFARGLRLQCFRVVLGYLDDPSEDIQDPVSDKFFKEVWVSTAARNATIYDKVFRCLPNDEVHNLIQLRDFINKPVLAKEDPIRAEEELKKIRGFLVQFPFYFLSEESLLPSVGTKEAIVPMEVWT
Chain of 5-hydroxytryptamine receptor 5A (P47898 whole entry): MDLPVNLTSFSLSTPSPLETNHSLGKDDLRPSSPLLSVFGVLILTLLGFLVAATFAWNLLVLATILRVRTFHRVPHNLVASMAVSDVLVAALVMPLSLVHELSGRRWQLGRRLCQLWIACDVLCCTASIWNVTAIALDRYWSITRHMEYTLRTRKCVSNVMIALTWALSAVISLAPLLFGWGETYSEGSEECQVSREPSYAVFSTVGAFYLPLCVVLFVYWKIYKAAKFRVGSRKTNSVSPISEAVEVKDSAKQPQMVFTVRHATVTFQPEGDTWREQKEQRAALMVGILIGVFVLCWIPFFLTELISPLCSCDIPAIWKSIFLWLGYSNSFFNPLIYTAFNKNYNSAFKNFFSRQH
Chain of Cytochrome P450 2C19 (P33261 whole entry): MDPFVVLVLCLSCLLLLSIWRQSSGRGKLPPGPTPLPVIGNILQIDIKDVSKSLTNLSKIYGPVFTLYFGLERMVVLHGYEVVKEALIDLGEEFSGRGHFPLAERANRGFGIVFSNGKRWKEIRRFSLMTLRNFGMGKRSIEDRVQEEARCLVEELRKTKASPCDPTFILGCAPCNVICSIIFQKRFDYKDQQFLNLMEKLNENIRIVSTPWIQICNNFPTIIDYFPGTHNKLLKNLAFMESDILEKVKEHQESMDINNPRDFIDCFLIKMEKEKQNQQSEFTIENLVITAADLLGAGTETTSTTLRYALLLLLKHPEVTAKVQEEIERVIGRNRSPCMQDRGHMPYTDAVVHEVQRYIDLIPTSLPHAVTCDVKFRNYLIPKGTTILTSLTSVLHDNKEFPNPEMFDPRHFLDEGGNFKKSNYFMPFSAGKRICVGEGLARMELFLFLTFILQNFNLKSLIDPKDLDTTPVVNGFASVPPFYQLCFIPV
Chain of Type-1 angiotensin II receptor (P30556 whole entry): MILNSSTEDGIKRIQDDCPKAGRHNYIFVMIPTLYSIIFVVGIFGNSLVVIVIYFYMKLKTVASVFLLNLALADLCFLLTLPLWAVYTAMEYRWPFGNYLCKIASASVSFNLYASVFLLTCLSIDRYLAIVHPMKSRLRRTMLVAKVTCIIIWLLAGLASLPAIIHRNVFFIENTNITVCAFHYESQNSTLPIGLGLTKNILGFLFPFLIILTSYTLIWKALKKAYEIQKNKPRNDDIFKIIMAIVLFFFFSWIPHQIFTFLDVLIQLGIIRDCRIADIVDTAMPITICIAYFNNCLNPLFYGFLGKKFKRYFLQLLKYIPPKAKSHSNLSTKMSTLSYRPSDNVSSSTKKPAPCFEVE
Chain of Delta-type opioid receptor (P41143 whole entry, the tested form may be a part): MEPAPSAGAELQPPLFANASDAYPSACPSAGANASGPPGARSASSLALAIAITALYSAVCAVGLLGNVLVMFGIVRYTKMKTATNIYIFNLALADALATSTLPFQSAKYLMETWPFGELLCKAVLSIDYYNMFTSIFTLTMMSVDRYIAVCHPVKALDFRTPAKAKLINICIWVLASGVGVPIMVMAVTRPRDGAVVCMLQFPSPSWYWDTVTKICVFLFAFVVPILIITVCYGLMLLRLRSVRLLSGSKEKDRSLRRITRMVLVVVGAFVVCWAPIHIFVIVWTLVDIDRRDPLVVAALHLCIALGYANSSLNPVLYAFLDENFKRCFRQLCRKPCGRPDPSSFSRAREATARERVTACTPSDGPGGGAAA

SMILES: COC(=O)Nc1nnc(-c2ccccc2Cl)s1
IC50 [1]: 23.6 µM (active)
AC50 (HeLa): 61.8 µM (active)
IC50 [2]: 5.89 µM (active)
IC50 [3]: 18.9 µM (active)
IC50 (Caspase-3 [4]): 5.86 µM (active)

SMILES: Nc1nonc1C(=O)NCCNCc1c(OCc2ccccc2F)ccc2ccccc12
EC50 (Mu-type opioid receptor): > 92.5 µM (inactive)
EC50 [5]: 74.8 µM (inactive)
AC50 [6]: 52.6 µM (active)
AC50 [7]: 922 nM (active)
AC50 [8]: 14.1 µM (active)
EC50 [9]: > 92.5 µM (inactive)
EC50 [10]: > 99 µM (inactive)
EC50 [11]: > 99 µM (inactive)

SMILES: O=C(/C=C/c1ccc(Cl)cc1)Nc1ccc(N2CCCCC2)cc1
EC50 (Insulin-degrading enzyme [12]): > 54.7 µM (inactive)
EC50 (Insulin-degrading enzyme [13]): > 54.7 µM (inactive)
AC50 (Cytochrome P450 2C19): inconclusive
IC50 (HEK293 [14]): > 89.2 µM (inactive)
EC50 (HEK293 [15]): > 54.7 µM (inactive)

AC50 [16]: 2.95 µM (active)
AC50 [17]: 21.6 µM (active)
SMILES: COc1cc(C(=O)Nc2cccc(-c3nncn3C)c2)cc(OC)c1OC

EC50 (Beta-galactosidase): > 40 µM (inactive)
IC50 [18]: 2.72 µM (active)
SMILES: O=C(CCl)NNc1cccc(Cl)n1

SMILES: Cc1ccccc1/C=C/C1=NCCN1 [METRAZOLINE OXALATE]
AC50 [19]: 15.8 µM (inconclusive)

SMILES: C[C@@H](CN1CCC2(CC1)C(=O)NCN2c1ccc(F)c(F)c1)NC(=O)c1cc2ccccc2[nH]1
IC50 (Phospholipase D1): 3 nM (active)
IC50 (Phospholipase D2): 34 nM (active)

IC50 (Caspase-3 [20]): > 99 µM (inactive)
IC50 [22]: > 99 µM (inactive)
IC50 [23]: > 99 µM (inactive)
SMILES: C(=C\c1nc(-c2cc3ccccc3cn2)no1)/c1ccccc1
IC50 [21]: > 99 µM (inactive)

SMILES: O=C(c1ccc(F)cc1)N1CCN(c2ccccn2)CC1
AC50 (Candida albicans [24]): 4.43 µM (active)
AC50 (Candida albicans [25]): 53.2 µM (active)
